Data: patent publication US20060014709A1, “Drug or cosmetic” (priority 2002, published 2006)
Where “and” joins values, the source holds several entries; their conditions need not be identical. Equal entries are not always repeated. Entries after “also recorded” stand apart in the source; their conditions may differ. Marks after values point to notes of the source that are not given here.

Tests used:
Type in all cases: in vivo
[1] = test system: male SD rats, obstruction-released kidney (glomerular lesions and tubulointerstitial lesions); experiment: Obstruction release model after complete obstruction of unilateral ureter for 14 days (Example 2-1); design: key to Tubulointerstitial lesions: level of lesions (quality): summed lesion score: + = 1, ++ = 2, +++ = 3 points; conditions: rat
Excerpt: (§1) That is, the rat was laparotomized under anesthesia with ether and left ureter was ligated with 7-0 Nylon at the height of the margin of lower pole of kidney to close the abdomen. On the 14th day after obstruction, the obstruction was released and urinary passage was reconstructed using a cuff. Thus, after 14 days, the part of ligated obstructed ureter was resected, a polyethylene tube of 25 gages (manufactured by Nippon Sherwood) was used as a cuff and inserted into and retained at the lumen from the cut end of the lower normal ureter, then the cuff was also retained in the expanded upper ureter and each of them was ligated and fixed by 7-0 Nylon to reconstruct the urinary passage. At the same time, the right kidney at the opposite side was excised. After the release of the obstruction, body weight was measured, blood was drawn on the 2nd day, 5th day and 7th day from the release to measure serum creatinine, then the rat was killed under anesthesia and the left obstruction-released kidney was excised.
With regard to the excised kidney, there were carried out measurements of weight of the kidney, creatinine concentration mg/dl in plasma as an indicator of kidney function and pathological test for the kidney, and also leukocyte cells which infiltrate the obstruction-released kidney were immunopathologically studied with cell surface markers for ED1 macrophages, CD11b (ED8) positive macrophages and CD5 positive lymphocytes. A number of positive cells was expressed as a number of cells per glomerulus from measured numbers of positive cells in five glomeruli, and for a number in tubulointerstitial tissue, it was expressed by the total number of cells existing in five fields of 200×magnification. For macrophages, a number of CD11b positive cells existing in glomerulus was considered as a number of CD11b^+CD2^+ macrophages and a case of existing not less than one positive cell per glomerulus was considered as positive (+). In the tubulointerstitial tissue, a number of […] 60 CD11b positive cells was considered as positive (+), or a case of CD11b^−CD2^+ macrophages dominantly increasing. Scoring of evaluation of tubulointerstitial lesions was as follows: + gets 1-point as a light lesion; ++ gets 2-point as a moderate lesion; and +++ gets3-point as a severe lesion. For glomerular lesions, when a proportion of lesioned glomeruli was decreased to not more than 40%, and for tubulointerstitial lesions, when a score of the lesions was not more than 4, it was considered as improved.
For glomerular lesions, by counting glomeruli causing thickening of Bowman's capsule wall and glomerular hyalinosis, a proportion of glomeruli having lesions was calculated. For tubulointerstitial lesions, by qualifying hyperplasia of tubular basement membrane and interstitial fibrosis, levels of the lesions were represented.
(§2) An in vivo biological test was carried out for the γ-lactone derivative according to the present invention using this model. Bulk powder of a test compound was dissolved in sterile physiological saline together with gum arabic, and concentrations of the test compound and gum arabic were adjusted to 30 mg/mL and 5% respectively. The preparation was administered orally or subcutaneously injected at the dose of 30 mg/kg or 3 mg/kg every day. The administration was conducted for the total 21 days of the obstructed period for 14 days and after release of the obstruction for 7 days.
For test groups, a group administered single compound group, a group administered both compound group and a control group administered solution of gum arabic were set up and compared for renal functions and morphological evaluations, as well as numbers of ED1, CD5, CD11b positive cells by means of immunopathology.

[2] = test system: male SD rats, obstruction-released kidney (glomerular lesions and tubulointerstitial lesions); experiment: Obstruction release model after complete obstruction of unilateral ureter for 14 days (Example 2-2); design: key to Tubulointerstitial lesions: level of lesions: summed lesion score; + = 1, ++ = 2, +++ = 3; ≤6.5 improved; conditions: rat, 30 mg/kg subcutaneously
Excerpt: as §1, §2
For cell surface markers of leukocyte cells which infiltrate the obstruction-released kidney, ED1, CD11b (ED8), CD5 and CD2 were used. […] For CD5^+, a number of not less than 20 per glomerulus was considered as positive. For glomerular lesions, which was characterized by Bowman's capsule wall, glomerular hyalinosis, dilation of urinary space pole and hypertrophy of parietal cells, 50 glomeruli were evaluated to obtain a proportion of pathologic glomeruli. For tubulointerstitial lesions, levels of the lesions were represented by qualifying hyperplasia of tubular basement membrane, tubular enlargement and atrophy and interstitial fibrosis. Scoring was as follows: + gets 1-point as a light lesion; ++ gets 2-point as a moderate lesion; and +++ gets 3-point as a severe lesion. Levels of cell infiltration were evaluated qualitatively according to the above three-point scale. For glomerular lesions, when a proportion of lesioned glomeruli was decreased to not more than 20%, and for tubulointerstitial lesions, when a score of the lesions was not more than 6.5, it was considered as improved.
Numbers of cells positive for CD11b (ED8), CD2 and CD5 were compared by means of immunopathology, and CD11b^+CD2^+ macrophages were considered as regeneration-promoting macrophages in glomeruli and CD11b^−CD2^+CD5+ macrophages were considered as regeneration-promoting macrophages to tubulointerstitial lesions, and herewith, it was estimated whether each cell group is quantitatively dominant or not.

[3] = test system: male SDT rats (spontaneously type II diabetes model), complete skin-excised wounds; experiment: Complete skin-excised model, wound healing; conditions: SDT rat, 10 mg/kg subcutaneously every day
Excerpt: Using male SDT rats of 28-30 weeks age, which were a spontaneously type II diabetes model, promoting effect on repair and regeneration in wound healing after complete skin excision were examined according to a partially modified method of Breitbout AS et al. (Ann Plast Surg 1999, 43: 632). That is, an animal was shaved at its back under anesthesia with ether, and skin in 2×2 cm size was excised together with panniculus carnosus in same size to make two complete skin-excised wounds per animal.
Healings of the wounds were observed on the 1st day, 4th day, 7th day, 12h day, 15th day, 21st day and 28th day from the operation. An area of the wounds was obtained as the product of the average vertical length and the average horizontal length which were measured along with a direction of the longest part in the wound.
A test compound was dissolved in sterile physiological saline together with gum arabic. Concentrations of the test compound and gum arabic were adjusted to 30 mg/mL and 5% respectively. The preparation was subcutaneously injected at the dose of 10 mg/kg every day. The administration was started on 6 days before the operation and continued to 28 days after the operation.

[4] = 30 mg/kg subcutaneously every day for 21 days, one value per animal, 30 mg/kg

C[C@@H](OC(=O)[C@@]1(Oc2ccc(F)cc2)CCC(=O)O1)c1ccc2ccccc2c1 [compound (II-1), (R)-1-naphthalen-2-ylethyl (R)-2-(4-fluorophenoxy)-5-oxotetrahydrofuran-2-carboxylate]
cases with increased regeneration-promoting CD11b^+CD2^+ macrophages to glomerular lesions ([1]; 30 mg/kg subcutaneously): all five cases
cases with increased regeneration-promoting CD11b^−CD2^+ macrophages to tubulointerstitial lesions ([1]; 30 mg/kg subcutaneously): four of five cases
pathological improvement of glomerular lesions (cases) ([1]; 30 mg/kg subcutaneously): four of five cases
pathological improvement of tubulointerstitial lesions (cases) ([1]; 30 mg/kg subcutaneously): no tubulointerstitial lesion was improved
Regeneration CD11b^+CD2^+ macrophages to glomerular lesions, Determination: increase = + ([1]; 30 mg/kg subcutaneously every day for 21 days, one value per animal): + (a case of existing not less than one positive cell per glomerulus was considered as positive (+))
Coincidence of two regeneration macrophages being positive [1, 4]: Coincident; also recorded: Not coincident
Glomerular lesions: proportion of lesioned glomeruli (%) [1, 4]: 10% and 14% and 22% and 57% and 23%
Number of regeneration CD11b^+CD2^+ macrophages to glomerular lesions: number of positive cells per glomerulus [1, 4]: 1.2 cells per glomerulus and 1.7 cells per glomerulus and 1.1 cells per glomerulus and 2.8 cells per glomerulus and 2.0 cells per glomerulus
Number of regeneration CD11b^−CD2^+ macrophages to tubulointerstitial lesions: number of positive cells (CD11b) in five fields of 200× magnification [1, 4]: 39 cells in five fields of 200× m and 49 cells in five fields of 200× m and 15 cells in five fields of 200× m and 65 cells in five fields of 200× m and 26 cells in five fields of 200× m
Regeneration CD11b^−CD2^+ macrophages to tubulointerstitial lesions, Determination: increase + [1, 4]: + (a number of not more than 60 CD11b positive cells was considered as positive (+))
Serum creatinine [1, 4]: 2.6 mg/dl and 1.7 mg/dl (2×) and 2.0 mg/dl and 1.8 mg/dl
Tubulointerstitial lesions: level of lesions (quality) [1, 4]: 7.5 and 9.0 (2×) and 8.0 and 6.5
cases in which regeneration-promoting CD11b^+CD2^+ macrophages were predominant in glomeruli [2]: all five cases
cases in which regeneration-promoting CD11b^−CD2^+CD5+ macrophages were predominant in tubulointerstitial lesions [2]: negative in tubulointerstitial lesions in all cases
pathological improvement of glomerular lesions (cases) [2]: only one case
pathological improvement of tubulointerstitial lesions (cases) [2]: all five cases
Regeneration macrophages to glomerular lesions, Determination Increase + ([2]; one value per animal): + (a case of existing not less than one positive cell per glomerulus was considered as positive (+))
Degree of cell infiltration ([2]; one value per animal, 30 mg/kg): +++
Number of regeneration CD11b^+CD2^+ macrophages to glomerular lesions: number of positive cells per glomerulus CD11b^+CD2^+ ([2]; one value per animal, 30 mg/kg): 1.2 cells per glomerulus and 1.7 cells per glomerulus and 1.1 cells per glomerulus and 2.8 cells per glomerulus and 2.0 cells per glomerulus
Number of regeneration CD11b^−CD2^+CD5^+ macrophages to tubulointerstitial lesions: number of positive cells in five fields of 200× magnification, CD5^+ ([2]; one value per animal, 30 mg/kg): 6 cells in five fields of 200× m and 9 cells in five fields of 200× m and 3 cells in five fields of 200× m (2×) and 4 cells in five fields of 200× m
Number of regeneration CD11b^−CD2^+CD5^+ macrophages to tubulointerstitial lesions: number of positive cells in five fields of 200× magnification, CD11b^+ ([2]; one value per animal, 30 mg/kg): 39 cells in five fields of 200× m and 49 cells in five fields of 200× m and 15 cells in five fields of 200× m and 65 cells in five fields of 200× m and 26 cells in five fields of 200× m
Serum creatinine ([2]; one value per animal, 30 mg/kg): 2.6 mg/dl and 1.7 mg/dl (2×) and 2.0 mg/dl and 1.8 mg/dl
Tubulointerstitial lesions: level of lesions ([2]; one value per animal, 30 mg/kg): 8.0 (4×) and 6.0
Glomerular lesions: proportion of lesioned glomeruli (%) ([2]; one value per animal, 50 glomeruli evaluated, 30 mg/kg): 16% (2×) and 12% (2×) and 8%
Excised wound area (cm^2) ([3]; 1st day after complete skin excision): 3.33 cm^2
Excised wound area (cm^2) ([3]; 4th day after complete skin excision): 2.31 cm^2
Excised wound area (cm^2) ([3]; 7th day after complete skin excision): 1.62 cm^2
Excised wound area (cm^2) ([3]; 12th day after complete skin excision): 0.52** cm^2
Excised wound area (cm^2) ([3]; 15th day after complete skin excision): 0.55 cm^2
Excised wound area (cm^2) ([3]; 21st day after complete skin excision): 0.44 cm^2
Crust formation/number of wound ([3]; 21st day after the operation): 0/8
crust formation on the surface of repaired wounds (in words) ([3]; 28th day): no crust formation occurred
Excised wound area (cm^2) ([3]; 28th day after complete skin excision): 0.29 cm^2
Crust formation/number of wound ([3]; 28th day after the operation): 1/8
promoting effect on wound healing (in words) ([3]; versus the control group, 10 mg/kg): significant promoting effect on wound healing at 12th day after the operation; also recorded: promoting effect on healing of epidermis
